Square brackets hold non-standard residues; d marks the D form. Peptide text beside a SMILES is read from it. Ala(indol-4-yl) = N[C@@H](Cc1cccc2[nH]ccc12)C(=O)O; NMeR = CN[C@@H](CCCNC(=N)N)C(=O)O; Tle = CC(C)(C)[C@H](N)C(=O)O; Dab = NCC[C@H](N)C(=O)O
Experiments:
intact rabbit cornea = assay: In vitro cytotoxicity study, percentage of living cells; format: cell-based; conditions: for corneal cells died, compared to untreated cells: 0.1, 0.25 and 0.5 mg/ml, 24 hour period, FIGURE 10B; for death of corneal cells: FIGURE 10A
Procedure: In vitro cytotoxicity studies were performed in intact rabbit cornea. Proparacaine (0.5 mM, 1 mM, 5 mM, and 10 mM), tetracaine (0.5 mM, 1 mM, 5 mM, and 10 mM), NT71 (0.1 mg/ml (0.13 mM), 0.25 mg/ml (0.32 mM), and 0.5 mg/ml (0.63 mM)), NT72 (0.1 mg/ml (0.15 mM), 0.25 mg/ml (0.38 mM), and 0.5 mg/ml (0.76 mM)), and 70% MeOH were added to intact rabbit corneas. The percentage of living cells was determined over a 24 hour period using light microscopy and fluorescence. As apparent from FIGURE 10A, tetracaine was cytotoxic to the corneal cells at concentrations as low as 0.5 mM, resulting in the death of about half of the corneal cells observed.

rabbit cornea [1] = assay: Wound healing after excimer laser keratectomy; format: in vivo, rabbits
Procedure: Anesthetized rabbits were placed under an operating microscope, a sterile lid speculum placed in the right eye, and a 6.5 mm excimer laser ablation of 75 microns centered on the pupil was made using a Ladarvision 4000 excimer laser. A single drop of moxifloxacin 0.1 % was used at the end of the procedure. SAR001 (NT71, 0.1% w/w), SAR002 (NT72, 0.1 % w/w), or NT69 was instilled at the end of the procedure and repeated at 4 hour intervals. Control animals underwent the same surgical procedure. Standard doses of tetracaine (0.5% w/w) or proparacaine (not shown) were instilled at the end of the procedure and at 4 hour intervals thereafter.
Fluorescein (1%) was instilled into the right eye at times 0, 1, 2, 6, 12, 36, 48, 72, 96, and 120 hours after the procedure and the size of the epithelial defect measured via slit lamp photography. Degree of blinking, tearing, conjunctival injection, anterior chamber inflammation, and intraocular pressure were evaluated.

[2] = system: primary rabbit corneal epithelial cells; assay: In vitro scratch assay, cell migration and scratch closure; format: cell-based; conditions: 0.1 mg/ml and 0.5 mg/ml; FIGURES 7-9
Procedure: The limbus was removed from both eyes of anesthetized rabbits and dissected to include 1.0 to 1.5 mm peripheral cornea and 1.0 to 1.5 mm beyond the anatomical limbus. Each limbus was divided into four small segments. Two segments were used for each 60 mm square plate.
Cultured rabbit corneal epithelial cells were utilized to measure the closure of a scratch made in a confluent epithelial monolayer in the presence of varying doses of the test compounds (0.1 mg/ml to 10 mg/ml). Uniform scratches were made in confluent monolayers of primary rabbit corneal epithelial cells ("in vitro scratch assay").
Individual cell migration assays were performed in the presence of the test compounds and compared with standard doses of tetracaine and proparacaine. Movement of cells from the edge of the scratch (wound) toward the middle of the scratch (wound) were measured over 24 hours. […] Cells in which NT71 and NT72 were added migrated at least 40 µm, alternatively at least 50 µm, alternatively at least 60 µm, alternatively at least 70 µm over 24 hours.
There was very little closure of the wounds in which proparacaine and tetracaine were added. […] In contrast, control cells substantially closed the defect within 24 hours.

rabbit cornea [3] = assay: In vivo superficial keratotomy, administration every 2 hours for 36 hours; parameters: species or system rabbits
Procedure: In vivo superficial keratotomy experiments were performed on rabbits to access healing effects in an animal model.
Starting with equivalent circular wounds of 6.5 mm diameter (33 mm^2), after 36 hrs of administration every 2 hours of 1 mg/mL NT71(SAR001), NT72 (SAR002), tetracaine or saline (control), the persistent epithelial defect (wound) size was: • Control (saline) 4 mm^2 • Tetracaine 14.4 mm^2 • SAR001 2.8 mm^2 • SAR002 4.8 mm^2

rabbit cornea [4] = assay: In vivo superficial keratotomy, administration every 4 hours for 5 days; parameters: species or system rabbits
Excerpt: Anesthetized rabbits were placed under an operating microscope, a sterile lid speculum placed in the right eye, and a 6.5 mm trephine used to make a partial thickness epithelial cut centered on the pupil. A sterile beaver blade was used to remove the epithelium within the area of demarcation. A single drop of moxifloxacin 0.1% was instilled at the end of the procedure. The speculum was removed and the animal allowed to recover from the systemic anesthesia. The topical agent under investigation was placed in the eye every 4 hours for 5 days. […] The control animals underwent the same surgical procedure. At the end of the procedure, 0.5% proparacaine or vehicle was instilled in the eye every 4 hours.
Fluorescein (1%) was instilled into the eye at times 0, 1, 2, 6, 12, 36, 48, 72, 96, and 120 hours after the procedure and the size of the epithelial defect measured via slit lamp photography. The animals were scored for degree of blinking, tearing, conjunctival injection, anterior chamber inflammation, and intraocular pressure.

SMILES: CC(C)C[C@H](NC(=O)[C@@H](NC(=O)[C@H](Cc1cccc2[nH]ccc12)NC(=O)[C@@H]1CCCN1C(=O)[C@H](N)CCCCN)C(C)(C)C)C(=O)O [NT72] (H-[dK]P[Ala(indol-4-yl)][Tle]L-OH)
- corneal cells died, compared to untreated cells (intact rabbit cornea): < 20%

SMILES: CN[C@@H](CCCNC(=N)N)C(=O)N[C@@H](CCN)C(=O)N1CCC[C@H]1C(=O)N[C@@H](Cc1cccc2[nH]ccc12)C(=O)N[C@H](C(=O)N[C@@H](CC(C)C)C(=O)O)C(C)(C)C [NT71] (H-[NMeR][Dab]P[Ala(indol-4-yl)][Tle]L-OH)
- corneal cells died, compared to untreated cells (intact rabbit cornea): < 20%

SMILES: CCCCNc1ccc(C(=O)OCCN(C)C)cc1 [tetracaine]
- time to disappearance of epithelial defect (rabbit cornea [1]; instilled at 4 hour intervals, SAR001, SAR002 0.1% w/w, tetracaine 0.5% w/w, FIGURE 11): 96 to 110 h
- animals with incomplete disappearance of the defect (rabbit cornea [1]; tetracaine 0.5% w/w at 4 hour intervals): 50%
- closure of scratch [2]: did not close
- rate of scratch closure as compared to control [2]: greatest delay in monolayer closure
- persistent epithelial defect (wound) size (rabbit cornea [3]; after 36 hrs, 1 mg/mL every 2 hours, starting wound 33 mm^2): 14.4 mm^2
- state of wound (rabbit cornea [3]; after 48 hours): residual epithelial defect was still present
- death of corneal cells (intact rabbit cornea; 0.5 mM): about half
- death of corneal cells (intact rabbit cornea; 1 mM): almost all

SMILES: CCCOc1ccc(C(=O)OCCN(CC)CC)cc1N [proparacaine]
- animals with incomplete disappearance of the defect (rabbit cornea [4]; at 96-120 hours, 0.5% proparacaine every 4 hours): 40%
- time to disappearance of epithelial defect (rabbit cornea [4]; every 4 hours for 5 days, neurotensin analogs 0.6 mg/ml, proparacaine 0.5%): 96 to 120 h
- closure of scratch [2]: did not close
- death of corneal cells (intact rabbit cornea; 5 mM): almost all

From EP2131651B1 (Sarentis Therapeutics, Inc., priority 2007, dated 2013)
